For assay [1], the target named is Adenylate cyclase type 2 (Rattus norvegicus, UniProt P26769).
Assay [2] concerns the target 5-hydroxytryptamine receptor 2A (Rattus norvegicus, UniProt P14842).
Assay [3] deals with D(2) dopamine receptor (Rattus norvegicus, UniProt P61169).
Assay [4] concerns the target D(1A) dopamine receptor (Rattus norvegicus, UniProt P18901).

The record followed here is BindingDB's records for doi:10.1016/0014-2999(92)90578-r (Novo Nordisk, 1992).

“And” between values parts separate entries of the source, which are not always exact repeats. Equal values may be shown once. A value given as a limit tells only on which side of the number the result lay.

D(2) dopamine receptor, sequence (P61169 whole entry): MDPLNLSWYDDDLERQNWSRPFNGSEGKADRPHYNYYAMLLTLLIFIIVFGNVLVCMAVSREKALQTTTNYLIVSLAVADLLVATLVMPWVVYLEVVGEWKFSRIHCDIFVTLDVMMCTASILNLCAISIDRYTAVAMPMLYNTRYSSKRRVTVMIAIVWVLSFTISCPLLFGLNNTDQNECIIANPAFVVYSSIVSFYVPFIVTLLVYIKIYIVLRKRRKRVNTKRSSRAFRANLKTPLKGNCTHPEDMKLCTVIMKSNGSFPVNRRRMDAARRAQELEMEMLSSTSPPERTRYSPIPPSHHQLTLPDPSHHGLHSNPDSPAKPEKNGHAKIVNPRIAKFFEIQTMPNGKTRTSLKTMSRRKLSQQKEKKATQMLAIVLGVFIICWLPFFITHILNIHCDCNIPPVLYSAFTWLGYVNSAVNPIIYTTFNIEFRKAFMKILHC
5-hydroxytryptamine receptor 2A, sequence (P14842 whole entry): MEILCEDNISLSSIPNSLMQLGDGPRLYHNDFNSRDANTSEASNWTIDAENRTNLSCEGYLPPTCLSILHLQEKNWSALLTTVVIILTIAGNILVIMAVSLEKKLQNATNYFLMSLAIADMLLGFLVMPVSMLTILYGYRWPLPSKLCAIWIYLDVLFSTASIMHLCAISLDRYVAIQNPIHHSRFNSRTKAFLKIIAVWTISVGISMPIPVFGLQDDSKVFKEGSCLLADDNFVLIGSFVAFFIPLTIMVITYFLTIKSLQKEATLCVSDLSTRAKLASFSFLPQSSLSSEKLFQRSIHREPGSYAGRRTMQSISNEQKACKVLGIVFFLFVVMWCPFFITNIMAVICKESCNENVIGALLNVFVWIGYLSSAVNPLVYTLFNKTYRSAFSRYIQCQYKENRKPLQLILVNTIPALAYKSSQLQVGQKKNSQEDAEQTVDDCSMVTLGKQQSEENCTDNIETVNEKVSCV
Adenylate cyclase type 2, sequence (P26769 whole entry): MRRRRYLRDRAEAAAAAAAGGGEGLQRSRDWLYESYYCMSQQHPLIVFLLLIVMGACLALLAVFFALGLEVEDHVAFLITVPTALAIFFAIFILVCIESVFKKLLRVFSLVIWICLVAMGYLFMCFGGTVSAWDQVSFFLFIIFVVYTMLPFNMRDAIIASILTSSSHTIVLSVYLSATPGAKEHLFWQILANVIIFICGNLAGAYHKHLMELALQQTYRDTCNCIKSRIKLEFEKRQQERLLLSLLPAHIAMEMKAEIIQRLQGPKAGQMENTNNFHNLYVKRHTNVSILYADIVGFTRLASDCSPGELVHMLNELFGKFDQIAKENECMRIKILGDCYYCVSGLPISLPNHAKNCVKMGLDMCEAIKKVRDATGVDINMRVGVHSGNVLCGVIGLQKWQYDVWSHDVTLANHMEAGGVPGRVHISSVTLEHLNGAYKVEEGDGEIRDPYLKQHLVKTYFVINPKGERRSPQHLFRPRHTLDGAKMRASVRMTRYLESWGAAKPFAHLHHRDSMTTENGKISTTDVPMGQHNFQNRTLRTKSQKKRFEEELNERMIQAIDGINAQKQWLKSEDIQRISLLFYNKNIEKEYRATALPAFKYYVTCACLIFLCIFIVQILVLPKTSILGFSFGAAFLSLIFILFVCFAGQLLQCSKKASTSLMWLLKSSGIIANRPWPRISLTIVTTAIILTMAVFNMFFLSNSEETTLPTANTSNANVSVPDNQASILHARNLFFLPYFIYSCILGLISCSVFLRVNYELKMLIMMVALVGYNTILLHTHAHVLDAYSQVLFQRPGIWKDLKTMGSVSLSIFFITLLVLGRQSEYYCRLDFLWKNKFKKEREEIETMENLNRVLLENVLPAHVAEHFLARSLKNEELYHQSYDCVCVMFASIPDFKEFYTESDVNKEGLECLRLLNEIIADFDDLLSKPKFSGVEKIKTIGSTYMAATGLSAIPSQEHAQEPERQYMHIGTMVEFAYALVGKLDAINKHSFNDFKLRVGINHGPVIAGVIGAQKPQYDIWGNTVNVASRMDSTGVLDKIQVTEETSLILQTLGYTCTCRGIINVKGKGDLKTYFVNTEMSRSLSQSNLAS
D(1A) dopamine receptor, sequence (P18901 whole entry): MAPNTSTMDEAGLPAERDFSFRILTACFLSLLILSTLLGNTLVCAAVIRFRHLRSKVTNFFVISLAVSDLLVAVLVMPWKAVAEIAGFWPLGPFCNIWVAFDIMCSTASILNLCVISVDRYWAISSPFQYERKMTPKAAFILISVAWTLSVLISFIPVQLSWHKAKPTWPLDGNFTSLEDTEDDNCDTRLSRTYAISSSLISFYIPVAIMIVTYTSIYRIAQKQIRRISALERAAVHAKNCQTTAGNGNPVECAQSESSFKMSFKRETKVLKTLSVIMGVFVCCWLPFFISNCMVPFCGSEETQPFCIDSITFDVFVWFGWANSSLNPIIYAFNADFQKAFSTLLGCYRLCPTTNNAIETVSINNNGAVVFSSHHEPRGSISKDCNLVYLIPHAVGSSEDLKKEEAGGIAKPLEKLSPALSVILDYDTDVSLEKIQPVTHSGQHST

The term Ki denotes a measure of affinity in units of concentration, obtained from inhibition or displacement. A lower Ki goes with higher affinity. `CN1CCc2cc(Cl)c(O)cc2[C@@H](c2ccccc2)C1` [SCH 23390,R(+)] registered a Ki in assay [1] of 39.9 nM.
Regarding `CN1CCc2cc(Cl)c(O)cc2C(c2cccc3c2OCC3)C1` (stereo not drawn) [NSC_132421], the Ki amounted to 4.5 nM in assay [2], 942 nM in assay [3], 0.17 nM in assay [4] and 2.2 nM in assay [1].
The matching figures for `CN1CCc2cc([N+](=O)[O-])c(O)cc2C(c2cccc3c2OCC3)C1` (stereo not drawn) [CAS_164252]: 355 nM, above 10000 nM, 5.8 nM and 9.1 nM.
For `CN1CCc2cc(Cl)c(O)cc2[C@@H](c2cccc3ccoc23)C1`, the Ki in assay [3] is 898 nM and 988 nM; in assay [1], 2.8 nM.
Take `Oc1cc2c(cc1O)[C@@H](c1ccccc1)CNCC2`: the Ki was above 10000 nM in assay [2] and 415 nM in assay [1].
